“Also recorded” adds a separate entry of the source. Peptide text beside a SMILES is read from it. * marks the point of attachment. Cbz = O=C(OCc1ccccc1)*
Legend:
ZFP91 [1] = test: ZFP91 protein level in HCC cells Focus and JHH4 (western blot / proteomic preparation); assay type: cell-based; conditions: for effect on ZFP91 degradation induced by Compound A: 10 μM for 1 hour, then 5 μM Compound A for 6 hours, FIG. 5A; for level of ZFP91 protein: control plate and proteomic preparation, beta-actin control
Procedure: (§1) Both HCC cells, Focus and JHH4 in 3D setting, were cultured continuously for 15 days treated with either DMSO or Compound A, or were first cultured for about 7 days prior to treatment with either DMSO or Compound A for 24 hours or 72 hours. Cells were harvested and proteins were prepared from the cells for proteomics analysis. The growth of the cells on control plates was also analyzed. In particular, cells were plated in media containing either DMSO or Compound A. Cells were cultured for certain time, and then were harvested onto filter plates. After the plates have dried, scintillation fluid was added to the plates and read on a Top-count reader.
Focus cells were cultured for 18 days either continuously for 18 days in the medium containing DMSO, Compound A, or Compound B, or cultured for 7 days prior to treating with DMSO, Compound A, or Compound B for 11 days. Then cells were harvested and were treated in 200 μl cold cell lysis buffer (1% Triton X-100 from Cell Signaling supplemented with protease inhibitors and phophatase inhibitors from Roche) to generate cell lysate. Proteins from cell lysate were separated by 4-12% nupage gels (Invitrogen) and transferred to nitrocellulose membranes. Immunoblots were then probed with antibodies recognizing CRBN, ZFP91 (LSBio) and β-actin (Li-Cor). Signals were detected with a Li-Cor Odyssey Imager. As shown, the level of ZFP91 reduced in response to treatment with Compound A or Compound B.
(§2) HCC cells from both Focus and JHH4 cell lines in 2D setting treated with Compound A for 6 hours, 24 hours, and 72 hours, and JHH4 cells in 3D setting treated with Compound A for 15 days were also analyzed by western blot. Cells were harvested and were treated in 200 μl cold cell lysis buffer (1% Triton X-100 from Cell Signaling supplemented with protease inhibitors and phophatase inhibitors from Roche) to generate cell lysate. Proteins from cell lysate were separated by 4-12% Nupage gels (Invitrogen) and transferred to nitrocellulose membranes. Immunoblots were then probed with antibodies recognizing CRBN, ZFP91 (LSBio), P-TBK1, and β-actin (Li-Cor). Signals were detected with a Li-Cor Odyssey Imager. As shown, the level of ZFP91 reduced in response to treatment with Compound A for 6 hours, 24 hours, or 72 hours in both cell lines in 2D setting. […] The level of CRBN increased in response to treatment with Compound A for 6 hours, 24 hours, or 72 hours in both cell lines in 2D setting. […] ZFP91 degradation induced by various doses of Compound A for various time periods was also tested in both Focus and JHH4 cells, as shown in FIG. 4C.
HCC cells from both Focus and JHH4 cell lines in 2D setting were first treated with 10 μM MG132 or MLN4924 for 1 hour, and then were treated with 5 μM DMSO or 5 μM Compound A for 6 hours. Cells were harvested and were treated in cell lysis buffer to generate cell lysate. Proteins from cell lysate were separated by gel electrophoresis and transferred to nitrocellulose membranes. Immunoblots were then probed with antibodies recognizing CRBN, ZFP91 (LSBio), and β-actin (Li-Cor). The results were shown in FIG. 5A, and as shown, both 10 μM MG132 or MLN4924 inhibited ZFP91 degradation. MG132 activates c-Jun N-terminal kinase (JNK1), which initiates apoptosis. […] MLN4924 is a NAE1 inhibitor that blocks the activity of Cullin Ring Ligases (CRLs), such as CRL4CRBN.

ZFP91 [2] = test: ZFP91 protein level in glioblastoma cell lines U87 and SNB19 (western blot); assay type: cell-based, human; conditions: FIG. 7A
Procedure: The change of ZFP91 level in response to treatment compounds was evaluated in other solid tumor cell lines, e.g., giloblastoma (GBM) cell lines. […] Proteins from cell lysate were separated by electrophoresis gel and transferred to nitrocellulose membranes. Immunoblots were then probed with antibodies recognizing ZFP91 and β-actin. Signals were detected with a Li-Cor Odyssey Imager.

ZFP91 [3] = test: ZFP91 protein level in Hep3B cells (western blot); assay type: cell-based, human; conditions: for effect on reduction of ZFP91 level in response to Compound A or Compound B: FIG. 6A lower panel; for ZFP91 level (western blot): FIG. 6A upper panel
Procedure: The change of ZFP91 level in response to Compound A or Compound B treatments was also evaluated in human hepatoma Hep3B cell lines. Hep3B cells were treated with Compound A or Compound B, and cells were harvested and treated in lysis buffer to generate cell lysate. Proteins from cell lysate were separated by electrophoresis gel and transferred to nitrocellulose membranes. Immunoblots were then probed with antibodies recognizing CRBN, ZFP91, and β-actin. Signals were detected with a Li-Cor Odyssey Imager. The results were shown in the upper panel of FIG. 6A. […] Thus, ZFP91 may be degraded in response treatment compounds regardless of growth response of the cells to the treatment compounds.

NF-κB activation = conditions: read-out: IC50 of inhibition of NF-κB activation; cited from earlier work
P-TBK1 = P-TBK1 level by western blot in HCC cells; assay type: cell-based; conditions: 3D setting; Compound A treatment
Procedure: as §2

U87 tumor = test: U87 xenograft tumor growth; assay type: in vivo; conditions: FIG. 7B left panel
ZFP91 [4] = test: Immunostaining of ZFP91 in U87 xenograft tissue; assay type: in vivo; conditions: FIG. 7B right panel
[5] = tested on: HCC cell lines (excised xenograft tumors of HAK-1AJ and Focus); test: Proteomic screening (TMT) of HCC cell lines after Compound A treatment; assay type: cell-based
Procedure: HCC cell lines (excised xenograft tumors of HAK-1AJ and Focus) were treated with either with DMSO, or Compound A for either once (single) or multiple times. Cells were harvested at 24 or 72 hours time points, and proteins were fractionated using a basic pH reverse gradient method. Fractionated samples were labeled using a Tandem Mass Tag (TMT) method. Relative abundance was calculated.

JHH4 cells = test: Colony growth on control plates, 3D culture; assay type: cell-based; conditions: JHH4, 3D, FIG. 3B
ZFP91 [6] = test: ZFP91 protein level in HCC cells Focus and JHH4 (western blot / proteomic preparation); assay type: cell-based; conditions: for level of ZFP91 in cells treated with cycloheximide (CHX): 100 ug/ml CHX, FIG. 5B; for effect of compound on ZFP91 degradation after knocking down of CRBN: FIG. 5C
Focus cells = test: Colony growth on control plates, 3D culture; assay type: cell-based; conditions: FIG. 2B
Procedure: as §1

CRBN = CRBN protein level in HCC cells Focus and JHH4 (western blot / proteomic preparation); assay type: cell-based; conditions: for level of CRBN (western blot): FIG. 4B; for level of CRBN protein: control plate and proteomic preparation
Procedure: as §2, with “Both HCC cells, Focus and JHH4 in 3D setting, were cultured continuously for 15 days treated with either DMSO or Compound A, or were first cultured for about 7 days prior to treatment with either DMSO or Compound A for 24 hours or 72 hours. Cells were harvested and proteins were prepared from the cells for proteomics analysis. The growth of the cells on control plates was also analyzed. In particular, cells were plated in media containing either DMSO or Compound A. Cells were cultured for certain time, and then were harvested onto filter plates. After the plates have dried, scintillation fluid was added to the plates and read on a Top-count reader. HCC” for “HCC”

Hep3B cells = test: Growth response of Hep3B cells to treatment compounds; assay type: cell-based, human; conditions: FIG. 6B
[7] = Focus cells, 18 days continuous or 7 days culture then 11 days treatment, FIG. 4A
[8] = proteomic screening vs DMSO, harvested at 24 or 72 hours

In the case of CC(C)C[C@@H](C=O)NC(=O)[C@H](CC(C)C)NC(=O)[C@H](CC(C)C)NC(=O)OCc1ccccc1 [MG132, reference compound] (Cbz-Leu-Leu-Leu-aldehyde), the “effect on ZFP91 degradation induced by Compound A” value (from here on “effect … by Compound A”) (ZFP91 [1]; Focus, 2D) is reported as “block; also recorded: inhibited”, the “effect … by Compound A” value (ZFP91 [1]; JHH4, 2D) is reported as “block; also recorded: inhibited” and the “effect on reduction of ZFP91 level in response to treatment compounds” value (“effect on reduction … to treatment compounds” for short) (ZFP91 [2]; SNB19 cells) is reported as “blocked”. For the same compound, the “effect on reduction … to treatment compounds” value (ZFP91 [2]; U87 cells) was “blocked”, the “effect on reduction of ZFP91 level in response to Compound A or Compound B” value (ZFP91 [3]) was “blocked” and the IC50 (NF-κB activation) was 3000 nM.

With Cc1nc2cccc(N)c2c(=O)n1C1CCC(=O)NC1=O (centres unmarked) [Compound A, 3-(5-amino-2-methyl-4-oxo-4H-quinazolin-3-yl)-piperidine-2,6-dione] the “P-TBK1 level (western blot)” value (P-TBK1) was “upregulated”, the “level of ZFP91 (western blot)” value (ZFP91 [1]; [7]) was “reduced” and the “level of ZFP91 (western blot)” value (ZFP91 [1]; Focus, 2D setting, 6 hours, 24 hours, or 72 hours, FIG. 4B) was “reduced”. The “level of ZFP91 protein” value (ZFP91 [1]; Focus, 3D, FIG. 2A) was “reduced”, the “level of ZFP91 (western blot)” value (ZFP91 [1]; JHH4, 2D setting, 6 hours, 24 hours, or 72 hours, FIG. 4B) was “reduced” and the “level of ZFP91 (western blot)” value (ZFP91 [1]; JHH4, 3D setting, 15 days, FIG. 4B) was “reduced”. For the same compound, the “level of ZFP91 protein” value (ZFP91 [1]; JHH4, 3D, FIG. 3A) was “reduced”, the U87 tumor growth (U87 tumor; 3 mg/kg qd) was “significantly inhibits” and the U87 tumor growth (U87 tumor; 30 mg/kg qd) was “significantly inhibits”. The “ZFP91 level (western blot)” value (ZFP91 [2]; SNB19 cells) was “down-regulated”, the “ZFP91 level (western blot)” value (ZFP91 [2]; U87 cells) was “down-regulated” and the “ZFP91 in U87 xenograft tissue (immunostaining)” value (ZFP91 [4]) was “degraded”. For the same compound, the “proteins commonly differentially abundant in both Focus and HAK-1AJ cell lines” value ([5]; 24 hours after treatment, FIG. 1C) was “WIBG, KAT1, Nestin, PARP4, and MVP”, the “proteins downregulated in response to Compound A treatment” value [5, 8] was “MVP, PARP4, ZFP91, and ZNF198” and the “proteins upregulated in response to Compound A treatment” value [5, 8] was “Nestin, KAT1/CCBL1, and WIBG”. The “ZFP91 level (western blot)” value (ZFP91 [3]) was “down-regulated”, the colony number (JHH4 cells) was “reduced” and the total colony area (JHH4 cells) was “reduced”. The “level of ZFP91 in cells treated with cycloheximide (CHX)” value (ZFP91 [6]; Focus) was “decreased”, the “effect of compound on ZFP91 degradation after knocking down of CRBN” value (ZFP91 [6]; Focus, CRBN knock-down) was “reversed” and the “level of ZFP91 in cells treated with cycloheximide (CHX)” value (ZFP91 [6]; JHH4) was “decreased”. For the same compound, the “effect of compound on ZFP91 degradation after knocking down of CRBN” value (ZFP91 [6]; JHH4, CRBN knock-down) was “reversed”, the colony number (Focus cells) was “reduced” and the total colony area (Focus cells) was “reduced”. For the same compound, the “level of CRBN (western blot)” value (CRBN; Focus, 2D setting, 6 hours, 24 hours, or 72 hours) was “increased”, the “level of CRBN protein” value (CRBN; Focus, 3D, FIG. 2A) was “increased” and the “level of CRBN (western blot)” value (CRBN; JHH4, 2D setting, 6 hours, 24 hours, or 72 hours) was “increased”. The “level of CRBN (western blot)” value (CRBN; JHH4, 3D setting, 15 days) was “increased”, the “level of CRBN protein” value (CRBN; JHH4, 3D, FIG. 3A) was “increased” and the “sensitivity of Hep3B cells (growth response)” value (Hep3B cells) was “not”.

In the case of O=C1CCC(N2Cc3c(OCc4ccc(CN5CCOCC5)cc4)cccc3C2=O)C(=O)N1 (centres unmarked) [Compound B, 3-[4-(4-Morpholin-4-ylmethyl-benzyloxy)-1-oxo-1,3-dihydro-isoindol-2-yl]-piperidine-2,6-dione], the “level of ZFP91 (western blot)” value (ZFP91 [1]; [7]) is reported as “reduced”, the “ZFP91 level (western blot)” value (ZFP91 [3]) is reported as “down-regulated” and the “effect of compound on ZFP91 protein level after knocking down of CRBN” value (ZFP91 [6]; CRBN knock-down, cell line not stated, FIG. 5D) is reported as “reversed”. For the same compound, the “sensitivity of Hep3B cells (growth response)” value (Hep3B cells) was “sensitive”.

With NS(=O)(=O)OC[C@@H]1C[C@@H](n2ccc3c(N[C@H]4CCc5ccccc54)ncnc32)C[C@@H]1O [MLN4924, reference compound] the “effect … by Compound A” value (ZFP91 [1]; Focus, 2D) was “inhibited”, the “effect … by Compound A” value (ZFP91 [1]; Focus, 2D, listed as MLN) was “block” and the “effect … by Compound A” value (ZFP91 [1]; JHH4, 2D) was “inhibited”. The “effect on reduction … to treatment compounds” value (ZFP91 [2]; SNB19 cells) was “blocked”, the “effect on reduction … to treatment compounds” value (ZFP91 [2]; U87 cells) was “blocked” and the “effect on reduction of ZFP91 level in response to Compound A or Compound B” value (ZFP91 [3]) was “blocked”. For the same compound, the “effect … by Compound A” value (ZFP91 [6]; JHH4, 2D, 10 μM for 1 hour, then 5 μM Compound A for 6 hours, FIG. 5A, listed as MLN) was “block”.
